From US10294202B2, “Pyrrolidinones as herbicides” (FMC Corporation, priority 2013, dated 2019)

Key:
Assay in all cases: Test A pre-/postemergence herbicide test
barnyardgrass = format: in vivo, Echinochloa crus-galli; conditions: for Barnyardgrass plant response rating: Preemergence, visual rating on 0 to 100 scale (0 no effect, 100 complete control)
Excerpt: (§1) Seeds of plant species selected from bamyardgrass (Echinochloa crus-galli), kochia (Kochia scoparia), ragweed (common ragweed, Ambrosia elatior), ryegrass, Italian (Italian ryegrass, Lolium multiflorum), crabgrass, large (large crabgrass Digitaria sanguinalis), giant foxtail (Setaria faberii), morningglory (Ipomoea spp.), pigweed (Amaranthus retroflexus), velvetleaf (Abutilon theophrasti), wheat (Triticum aestivum), and corn (Zea mays) were planted into a blend of loam soil and sand and treated preemergence with a directed soil spray using test chemicals formulated in a non-phytotoxic solvent mixture which included a surfactant. At the same time, plants selected from these crop and weed species and also blackgrass (Alopecurus myosuroides), and galium (catchweed bedstraw, Galium aparine) were planted in pots containing the same blend of loam soil and sand and treated with postemergence applications of test chemicals formulated in the same manner. Plants ranged in height from 2 to 10 cm and were in the one- to two-leaf stage for the postemergence treatment. Treated plants and untreated controls were maintained in a greenhouse for approximately 10 days, after which time all treated plants were compared to untreated controls and visually evaluated for injury. Plant response ratings, summarized in Table A, are based on a 0 to 100 scale where 0 is no effect and 100 is complete control. A dash (-) response means no test result.

crabgrass, large = format: in vivo, Digitaria sanguinalis; conditions: for Crabgrass, Large plant response rating: Preemergence, visual rating on 0 to 100 scale (0 no effect, 100 complete control)
Excerpt: as §1

giant foxtail = format: in vivo, Setaria faberii; conditions: for Foxtail, Giant plant response rating: Preemergence, visual rating on 0 to 100 scale (0 no effect, 100 complete control)
Excerpt: as §1

morningglory = format: in vivo, Ipomoea spp.; conditions: for Morningglory plant response rating: Preemergence, visual rating on 0 to 100 scale (0 no effect, 100 complete control)
Excerpt: as §1

pigweed = format: in vivo, Amaranthus retroflexus; conditions: for Pigweed plant response rating: Preemergence, visual rating on 0 to 100 scale (0 no effect, 100 complete control)
Excerpt: as §1

velvetleaf = format: in vivo, Abutilon theophrasti; conditions: for Velvetleaf plant response rating: Preemergence, visual rating on 0 to 100 scale (0 no effect, 100 complete control)
Excerpt: as §1

wheat = format: in vivo, Triticum aestivum; conditions: for Wheat plant response rating: Preemergence, visual rating on 0 to 100 scale (0 no effect, 100 complete control)
Excerpt: as §1

corn = format: in vivo, Zea mays; conditions: for Corn plant response rating: Preemergence, visual rating on 0 to 100 scale (0 no effect, 100 complete control)
Excerpt: as §1

[1] = Postemergence, 125 g ai/ha, 0 to 100 scale, 0 no effect, 100 complete control
[2] = Postemergence, 500 g ai/ha, 0 to 100 scale (0 no effect, 100 complete control)
[3] = preemergence, 500 g ai/ha, 0 to 100 scale (0 no effect, 100 complete control)
[4] = preemergence, 500 g ai/ha, 0 to 100 scale

SMILES	Plant response rating, Barnyardgrass (barnyardgrass; [1])	Plant response rating, Barnyardgrass (barnyardgrass; [2])	Barnyardgrass plant response rating (barnyardgrass; 125 g ai/ha)	Plant response rating, Barnyardgrass (barnyardgrass; [3])	Plant response rating, Crabgrass, Large (crabgrass, large; [1])	Plant response rating, Crabgrass, Large (crabgrass, large; [2])	Crabgrass, Large plant response rating (crabgrass, large; 125 g ai/ha)	Plant response rating, Crabgrass, Large (crabgrass, large; [4])	Plant response rating, Foxtail, Giant (giant foxtail; [1])	Plant response rating, Foxtail, Giant (giant foxtail; [2])	Foxtail, Giant plant response rating (giant foxtail; 125 g ai/ha)	Plant response rating, Foxtail, Giant (giant foxtail; [4])	Plant response rating, Morningglory (morningglory; [1])	Plant response rating, Morningglory (morningglory; [2])	Morningglory plant response rating (morningglory; 125 g ai/ha)	Plant response rating, Morningglory (morningglory; [4])	Plant response rating, Pigweed (pigweed; [1])	Plant response rating, Pigweed (pigweed; [2])	Pigweed plant response rating (pigweed; 125 g ai/ha)	Plant response rating, Pigweed (pigweed; [4])	further results
CC1NC(=O)C(C(=O)Nc2ccccc2C(F)(F)F)C1c1ccc(F)c(F)c1 (mixture of isomers) [Compound 9]	30	50	20	60	40	70	80	90	0	70	70	90	0	0	0	0	0	0	0	0	Plant response rating, Velvetleaf (velvetleaf; [1]): 0; Plant response rating, Velvetleaf (velvetleaf; [2]): 0; Velvetleaf plant response rating (velvetleaf; 125 g ai/ha): 0; Plant response rating, Velvetleaf (velvetleaf; [4]): 0; Plant response rating, Wheat (wheat; [1]): 0; Plant response rating, Wheat (wheat; [2]): 0; Wheat plant response rating (wheat; 125 g ai/ha): 0; Plant response rating, Wheat (wheat; [4]): 0; Plant response rating, Corn (corn; [1]): 0; Plant response rating, Corn (corn; [2]): 0; Corn plant response rating (corn; 125 g ai/ha): 0; Plant response rating, Corn (corn; [4]): 0
O=C1NCC(c2ccc(F)c(F)c2)C1C(=O)Nc1cccc(C(F)(F)F)c1 (racemic) [Compound 13]	0	30	0	50	0	60	50	80	0	0	0	30	0	0	0	0	0	0	0	0	Plant response rating, Velvetleaf (velvetleaf; [1]): 0; Plant response rating, Velvetleaf (velvetleaf; [2]): 0; Velvetleaf plant response rating (velvetleaf; 125 g ai/ha): 0; Plant response rating, Velvetleaf (velvetleaf; [4]): 0; Plant response rating, Wheat (wheat; [1]): 0; Plant response rating, Wheat (wheat; [2]): 0; Wheat plant response rating (wheat; 125 g ai/ha): 0; Plant response rating, Wheat (wheat; [4]): 0; Plant response rating, Corn (corn; [1]): 0; Plant response rating, Corn (corn; [2]): 0; Corn plant response rating (corn; 125 g ai/ha): 0; Plant response rating, Corn (corn; [4]): 0
O=C1NCC(c2ccccc2F)C1C(=O)Nc1ccccc1F (racemic) [Compound 85]	0	20	0	30	0	50	30	80	0	0	0	50	0	0	0	0	0	0	0	0	Plant response rating, Velvetleaf (velvetleaf; [1]): 0; Plant response rating, Velvetleaf (velvetleaf; [2]): 0; Velvetleaf plant response rating (velvetleaf; 125 g ai/ha): 0; Plant response rating, Velvetleaf (velvetleaf; [4]): 0; Plant response rating, Wheat (wheat; [1]): 0; Plant response rating, Wheat (wheat; [2]): 0; Wheat plant response rating (wheat; 125 g ai/ha): 0; Plant response rating, Wheat (wheat; [4]): 0; Plant response rating, Corn (corn; [1]): 0; Plant response rating, Corn (corn; [2]): 0; Corn plant response rating (corn; 125 g ai/ha): 0; Plant response rating, Corn (corn; [4]): 0
O=C1NCC(c2ccccc2Cl)C1C(=O)Nc1ccccc1F (racemic) [Compound 88]	0	40	0	50	0	60	40	80	0	0	0	30	0	0	0	0	0	0	0	30	Plant response rating, Velvetleaf (velvetleaf; [1]): 0; Plant response rating, Velvetleaf (velvetleaf; [2]): 0; Velvetleaf plant response rating (velvetleaf; 125 g ai/ha): 0; Plant response rating, Velvetleaf (velvetleaf; [4]): 0; Plant response rating, Wheat (wheat; [1]): 0; Plant response rating, Wheat (wheat; [2]): 0; Wheat plant response rating (wheat; 125 g ai/ha): 0; Plant response rating, Wheat (wheat; [4]): 0; Plant response rating, Corn (corn; [1]): 0; Plant response rating, Corn (corn; [2]): 0; Corn plant response rating (corn; 125 g ai/ha): 0; Plant response rating, Corn (corn; [4]): 0
O=C1NCC(c2ccc(Cl)cc2Cl)C1C(=O)Nc1ccccc1F (racemic) [Compound 91]	0	20	0	20	30	50	40	60	0	20	0	40	0	0	0	0	0	0	0	0	Plant response rating, Velvetleaf (velvetleaf; [1]): 0; Plant response rating, Velvetleaf (velvetleaf; [2]): 0; Velvetleaf plant response rating (velvetleaf; 125 g ai/ha): 0; Plant response rating, Velvetleaf (velvetleaf; [4]): 0; Plant response rating, Wheat (wheat; [1]): 0; Plant response rating, Wheat (wheat; [2]): 0; Wheat plant response rating (wheat; 125 g ai/ha): 0; Plant response rating, Wheat (wheat; [4]): 0; Plant response rating, Corn (corn; [1]): 0; Plant response rating, Corn (corn; [2]): 0; Corn plant response rating (corn; 125 g ai/ha): 0; Plant response rating, Corn (corn; [4]): 0
